Measurements from PMC5972072 (Bioorganic chemistry, 2018).
“Also recorded” adds a separate entry of the source.

How the values were obtained:
HCT116 cells [1] = assay: Antiproliferative activity, CellTiter-Blue viability; format: cell-based; settings: for antiproliferative activity (in words): HCT116, 10 μM, 72 h; for IC50: Homo sapiens, HCT-116, 72 h, read-out: IC50 against HCT116
HeLa cells = assay: as above; format: cell-based; settings: 72 h; for antiproliferative activity (in words): 10 μM; for IC50: Homo sapiens, read-out: IC50 against HeLa
haspin kinase [2] = target: T1, haspin kinase (Homo sapiens, UniProt Q8TF76); assay: Haspin kinase activity, ADP-Glo kinase assay, single concentration; format: biochemical; settings: for inhibition at 0.1 µM: read-out: inhibition of haspin's enzymatic activity; for haspin inhibition (in words): 100 nM compound, 3 h, Figure 2
T1 sequence (Q8TF76 1-798): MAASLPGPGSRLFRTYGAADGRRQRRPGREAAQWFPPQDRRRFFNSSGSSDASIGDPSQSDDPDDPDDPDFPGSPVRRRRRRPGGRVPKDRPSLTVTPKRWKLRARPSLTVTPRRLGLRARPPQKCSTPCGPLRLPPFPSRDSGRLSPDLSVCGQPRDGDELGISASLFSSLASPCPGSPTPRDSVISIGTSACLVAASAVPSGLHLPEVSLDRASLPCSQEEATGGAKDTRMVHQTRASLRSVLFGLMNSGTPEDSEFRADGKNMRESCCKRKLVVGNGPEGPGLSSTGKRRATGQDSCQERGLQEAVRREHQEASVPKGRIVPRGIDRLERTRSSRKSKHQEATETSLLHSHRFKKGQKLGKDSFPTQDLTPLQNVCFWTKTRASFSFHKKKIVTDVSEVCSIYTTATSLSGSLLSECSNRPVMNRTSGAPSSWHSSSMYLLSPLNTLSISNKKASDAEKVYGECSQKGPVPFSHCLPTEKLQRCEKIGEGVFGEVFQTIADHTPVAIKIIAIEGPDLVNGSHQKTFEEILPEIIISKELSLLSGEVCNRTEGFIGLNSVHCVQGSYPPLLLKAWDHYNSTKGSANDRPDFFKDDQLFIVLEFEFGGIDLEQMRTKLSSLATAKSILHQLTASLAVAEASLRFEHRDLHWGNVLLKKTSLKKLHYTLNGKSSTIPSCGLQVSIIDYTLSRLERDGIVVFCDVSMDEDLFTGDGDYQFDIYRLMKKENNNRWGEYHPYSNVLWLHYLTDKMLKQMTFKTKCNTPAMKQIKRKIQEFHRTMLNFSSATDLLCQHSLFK

[3] = test system: caspase 3/7 in HCT116 cells; assay: Caspase 3/7 fluorescence assay; settings: HCT116, after 72 hours, normalized to DMSO
HCT116 cells [4] = assay: Cell cycle analysis, propidium iodide staining with flow cytometry; format: cell-based
HCT116 and HeLa cells = HCT116 and HeLa cells ref 13; cited from earlier work
A375 cells = assay: Antiproliferative activity, CellTiter-Blue viability; format: cell-based; settings: A375, 10 μM, 72 h
haspin kinase [5] = target: T1, haspin kinase; assay: Haspin dose-response

haspin inhibition (in words) (haspin kinase [2])	Compound	antiproliferative activity (in words) (HCT116 cells [1])	antiproliferative activity (in words) (HeLa cells)	antiproliferative activity (in words) (A375 cells)	other results
–	Oc1ccc(-c2nc3ccc4[nH]ncc4c3c3c2CCCC3)c(F)c1 [HSD972, 3-Fluoro-4-(8,9,10,11-tetrahydro-3H-pyrazolo[4,3-a]phenanthridin-7-yl)phenol]	potent antiproliferative activities	potent antiproliferative activities	–	IC50 (HCT116 cells [1]): 2700 nM; IC50 (HeLa cells): 4800 nM; inhibition at 0.1 µM (haspin kinase [2]): > 90%; caspase 3/7 activity (in words) [3]: increased the activity of caspase 3/7; cells in G2 phase (HCT116 cells [4]; HCT116, 13.5 μM (5X IC50), 24 h, DMSO 16.2%): 59.3%; effect on cell cycle distribution (in words) (HCT116 cells [4]; HCT116, 5X IC50, 24 h, compared to DMSO): population of cells in the G2/M phase was higher
slightly less active against haspin	Nc1ncc(-c2nc3ccc4[nH]ncc4c3c3c2CCCC3)cn1 [Compound 18, 5-(8,9,10,11-Tetrahydro-3H-pyrazolo[4,3-a]phenanthridin-7-yl)pyrimidin-2-amine]	–	–	–	–
decreased potency	Oc1ccc(-c2nc3ccc4[nH]ncc4c3c3c2CCCC3)c(F)c1F [Compound 21, 2,3-Difluoro-4-(8,9,10,11-tetrahydro-3H-pyrazolo[4,3-a]phenanthridin-7-yl)phenol]	–	–	–	–
–	CCCNc1ccc2ncc(-c3ccc4[nH]ncc4c3)n2n1 [CHR-6494]	–	–	–	apoptosis (in words) (HCT116 and HeLa cells): apoptosis; cell cycle arrest (in words) (HCT116 and HeLa cells): G2/M cell cycle arrest
less active against haspin than HSD972	Oc1ccc(-c2nc3ccc4[nH]ncc4c3c3c2CCCC3)cc1F [Compound 8, 2-Fluoro-4-(8,9,10,11-tetrahydro-3H-pyrazolo[4,3-a]phenanthridin-7-yl)phenol]	–	–	–	–
decreased potency	Oc1cc(F)c(-c2nc3ccc4[nH]ncc4c3c3c2CCCC3)cc1F [Compound 10, 2,5-Difluoro-4-(8,9,10,11-tetrahydro-3H-pyrazolo[4,3-a]phenanthridin-7-yl)phenol]	–	–	–	–
potent inhibitors of haspin	Nc1ccc(-c2nc3ccc4[nH]ncc4c3c3c2CCCC3)cc1 [HSD929, 4-(8,9,10,11-Tetrahydro-3H-pyrazolo[4,3-a]phenanthridin-7-yl)aniline]	potent antiproliferative activities	potent antiproliferative activities	–	IC50 (haspin kinase [5]): 61 nM; IC50 (HCT116 cells [1]): 1680 nM; IC50 (HeLa cells): 3600 nM; haspin inhibition (in words) (haspin kinase [2]; listed as 16): did not affect haspin inhibition; inhibition at 0.1 µM (haspin kinase [2]): > 90%
poor haspin inhibitor	Oc1ccc(-c2nc3ccc4[nH]ncc4c3c3c2CCCC3)cn1 [Compound 12, 5-(8,9,10,11-Tetrahydro-3H-pyrazolo[4,3-a]phenanthridin-7-yl)pyridin-2-ol]	moderate antiproliferative activity	moderate antiproliferative activity	moderate antiproliferative activity	–
good haspin inhibitor	Oc1ccc(-c2nc3ccc4[nH]ncc4c3c3c2CCCC3)cc1 [Compound 1, 4-(8,9,10,11-Tetrahydro-3H-pyrazolo[4,3-a]phenanthridin-7-yl)phenol]	did not have good anticancer activities	did not have good anticancer activities	did not have good anticancer activities	–
did not affect haspin inhibition	Nc1ccc(-c2nc3ccc4[nH]ncc4c3c3c2CCCC3)cn1 [Compound 17, 5-(8,9,10,11-Tetrahydro-3H-pyrazolo[4,3-a]phenanthridin-7-yl)pyridin-2-amine]	–	–	–	IC50 (haspin kinase [5]): 45 nM; inhibition at 0.1 µM (haspin kinase [2]): > 90%

Compound	haspin inhibition (in words) (haspin kinase [2])	antiproliferative activity (in words) (HCT116 cells [1])	antiproliferative activity (in words) (HeLa cells)	antiproliferative activity (in words) (A375 cells)	other results
Oc1ccc(-c2nc3ccc4cn[nH]c4c3c3c2CCCC3)cc1 [Compound 20, 4-(8,9,10,11-Tetrahydro-1H-pyrazolo[3,4-a]phenanthridin-7-yl)phenol]	not as active against haspin than compound 1	–	–	–	–
Oc1ccc(-c2nc3c(ccc4cn[nH]c43)c3c2CCCC3)cc1 [Compound 19, 4-(6,7,8,9-Tetrahydro-3H-pyrazolo[4,3-c]phenanthridin-5-yl)phenol]	not as active against haspin than compound 1; also recorded: poor haspin inhibitors	performed poorly	performed poorly	performed poorly	–
N#Cc1n[nH]c2ccc3nc(-c4ccc(O)cc4)c4c(c3c12)CCCC4 [Compound 7, 7-(4-Hydroxyphenyl)-8,9,10,11-tetrahydro-3H-pyrazolo[4,3-a]phenanthridine-1-carbonitrile]	no inhibitory activity; also recorded: did not inhibit haspin; also recorded: poor haspin inhibitors	performed poorly	performed poorly	performed poorly	–
